Measurements reported in paper PMC11858854, “In Vitro and In Vivo Assessment of Pharmacokinetic Profile of Peramivir in the Context of Inhalation Therapy” (Pharmaceuticals, 2025).

Key:
Calu-3 cell model = assay: Bidirectional transport, Calu-3 air-liquid culture model; details: Calu-3, 2 μM, Mean ± SD, n = 3
[1] = system: overexpressed cell lines (uptake transporters); assay: Uptake study by overexpression cell lines, 10 μM substrate; type: in vitro ADME; details: substrate concentration 10 μM
Protocol: (§1) All cells (HEK293-MOCK, HEK293-OCT1, HEK293-OCT2, MDCK-MOCK, MDCK-OCTN1, and MDCK-OCTN2) were cultured in DMEM medium supplemented with 10% FBS and PS (100 U/mL), at 37 °C in a humidified 5% CO2 incubator. Cells were seeded on 24-well plates at a density of 1 × 10^4 cells/well. For the uptake assay, the DMEM media were removed, and the cells were washed with pre-warmed Hank’s buffer three times (1 mL/well). Subsequent addition of inhibitor-free/inhibitor-containing buffer was pre-incubated for 30 min at 37 °C prior to the initiation of the uptake experiment. After the pre-incubating buffer was removed, 200 μL of pre-warmed test drugs solution (Hank’s buffer containing 10 µM and 50 µM peramivir) or a mixture of test drugs and inhibitor was added into each well, and the plates were incubated at 37 °C for 5 min. At the end of incubation, cells were washed and lysed as described above. The cell lysate was collected and stored at −40 °C for LC-MS/MS analysis and protein measurement. The negative control (MOCK cells) and positive control were included simultaneously.

human OCT1 = target: T1, human OCT1 (Homo sapiens, UniProt O15245); assay: Uptake study, HEK293 cells overexpressing OCT1; type: in vitro ADME
T1 construct: host or cells: HEK293 (HEK293-OCT1); control HEK293-MOCK
T1 sequence (O15245 1-554): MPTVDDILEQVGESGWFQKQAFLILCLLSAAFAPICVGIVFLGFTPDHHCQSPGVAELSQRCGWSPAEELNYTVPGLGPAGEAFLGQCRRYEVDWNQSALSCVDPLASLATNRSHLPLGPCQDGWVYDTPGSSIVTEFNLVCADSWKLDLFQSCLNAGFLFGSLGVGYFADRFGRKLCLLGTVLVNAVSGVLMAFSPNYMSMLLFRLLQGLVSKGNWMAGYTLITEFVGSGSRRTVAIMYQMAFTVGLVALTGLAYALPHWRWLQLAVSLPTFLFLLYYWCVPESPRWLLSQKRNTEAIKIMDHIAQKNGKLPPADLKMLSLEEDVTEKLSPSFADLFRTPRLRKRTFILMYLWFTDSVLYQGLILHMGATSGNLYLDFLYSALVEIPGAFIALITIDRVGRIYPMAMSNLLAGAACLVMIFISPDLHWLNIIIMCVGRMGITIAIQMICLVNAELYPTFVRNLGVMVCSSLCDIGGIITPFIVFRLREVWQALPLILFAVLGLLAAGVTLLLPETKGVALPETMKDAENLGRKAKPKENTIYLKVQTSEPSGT
Protocol: as §1

human MDR1 (P-gp) = human MDR1 (P-gp) (Homo sapiens, UniProt P08183); assay: Permeability assay, LLC-PK1-MDR1 cells overexpressing P-gp
Sequence of human MDR1 (P-gp) (P08183 whole entry): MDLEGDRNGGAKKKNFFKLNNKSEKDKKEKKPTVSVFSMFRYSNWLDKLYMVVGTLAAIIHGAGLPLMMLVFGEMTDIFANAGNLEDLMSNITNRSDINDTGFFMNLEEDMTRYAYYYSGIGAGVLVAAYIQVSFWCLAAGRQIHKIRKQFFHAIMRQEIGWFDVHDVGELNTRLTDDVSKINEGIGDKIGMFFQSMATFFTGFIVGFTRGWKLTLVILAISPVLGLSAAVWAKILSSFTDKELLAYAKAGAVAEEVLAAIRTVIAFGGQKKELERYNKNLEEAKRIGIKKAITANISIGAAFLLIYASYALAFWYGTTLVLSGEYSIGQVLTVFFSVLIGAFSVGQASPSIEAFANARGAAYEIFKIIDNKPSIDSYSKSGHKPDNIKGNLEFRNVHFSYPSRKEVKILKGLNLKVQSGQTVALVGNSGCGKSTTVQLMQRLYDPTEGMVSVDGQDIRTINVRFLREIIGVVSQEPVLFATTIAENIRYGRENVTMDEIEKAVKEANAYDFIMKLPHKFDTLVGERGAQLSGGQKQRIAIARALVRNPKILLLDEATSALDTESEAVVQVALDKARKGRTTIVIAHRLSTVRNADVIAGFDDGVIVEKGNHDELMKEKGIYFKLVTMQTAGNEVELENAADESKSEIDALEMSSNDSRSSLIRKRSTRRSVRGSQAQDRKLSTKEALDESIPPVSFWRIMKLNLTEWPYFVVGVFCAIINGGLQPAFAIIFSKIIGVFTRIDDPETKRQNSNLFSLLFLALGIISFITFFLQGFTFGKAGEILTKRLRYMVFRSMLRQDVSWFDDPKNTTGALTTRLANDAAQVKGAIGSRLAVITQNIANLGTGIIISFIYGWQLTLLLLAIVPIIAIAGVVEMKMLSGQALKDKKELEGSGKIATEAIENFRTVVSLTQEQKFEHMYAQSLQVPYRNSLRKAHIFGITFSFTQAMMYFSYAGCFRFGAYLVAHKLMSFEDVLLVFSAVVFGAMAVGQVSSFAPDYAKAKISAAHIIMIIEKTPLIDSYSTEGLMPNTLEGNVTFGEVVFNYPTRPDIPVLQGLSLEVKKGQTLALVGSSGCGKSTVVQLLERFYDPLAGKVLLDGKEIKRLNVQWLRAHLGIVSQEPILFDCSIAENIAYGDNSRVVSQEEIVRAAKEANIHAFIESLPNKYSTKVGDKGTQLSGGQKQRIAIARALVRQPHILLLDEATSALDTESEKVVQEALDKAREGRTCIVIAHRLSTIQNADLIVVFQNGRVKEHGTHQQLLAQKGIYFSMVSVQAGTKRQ
Protocol: When the cell transport system was mature in culture, experiments were performed. […] When assessing permeability in basolateral to apical (B-A) direction, 100 μL of pre-warmed Buffer B and 600 μL of pre-warmed test solutions were added to the apical and basolateral compartments, respectively. The Transwells® were placed in an incubator at 37 °C and 5% CO2 for a duration of 2 h. At the end of the incubation period, the samples in the apical and basolateral sides were collected separately and were briefly kept at a temperature of −40 °C for LC-MS/MS analysis. […] The cells were transferred to Transwell® plates (Corning, NY, USA) at a density of 2 × 10^4 cells/well with 200 μL of cell suspension per well, while 850 μL of complete medium was added to the basolateral chamber. […] The samples were collected separately and were briefly kept at a temperature of −40 °C for LC-MS/MS analysis.

[2] = Pharmacokinetics study in rats (i.v. and tracheal nebulization, plasma); type: in vivo, rat; details: for AUC(0–t) / AUC(0–t)/D / AUC(0–∞) / Cmax or C0 / Cmax/D / MRT(0–t) / MRT(0–∞) / T1/2 / Tmax / Cl / Vss / Vz: rat plasma, Mean ± SD, n = 6
Protocol: Pharmacokinetic studies were performed on rats to examine the effects of two distinct routes of administration: intravenous (i.v.) and tracheal nebulization (i.t.). The two administration routes were established to provide different doses, with six SD rats randomly assigned and weighed for each route.
The intravenous group consisted of rats that were randomly allocated into two subgroups, receiving dosages of 3 mg/kg and 6 mg/kg, respectively. The i.t. group consisted of rats that were randomly allocated into four groups receiving doses of 0.3 mg/kg, 1 mg/kg, 3 mg/kg, and 6 mg/kg. Prior to and at 0.033, 0.083, 0.25, 0.5, 1, 2, 4, 6, 8, 12, and 24 h post-administration, about 200 μL of blood was obtained via jugular vein catheterization and transferred to an EP tube containing heparin. Following centrifugation for 10 min at 5000× g, the plasma was isolated and preserved in a refrigerator at −40 °C until analysis.
Noncompartmental PK parameter estimates were determined from individual concentration-time data, using Phoenix WinNonlin, version 8.1 (Certara USA, Princeton, NJ, USA). And the linear relationship between AUC(0–t) and the corresponding dose was analyzed. t tests were performed on pharmacokinetic parameters under different dosing regimens to analyse the differences in drug exposure in rats.

[3] = LLC-PK1-MDR1, 2 μM, Mean ± SD, n = 3

CCC(CC)[C@H](NC(C)=O)[C@@H]1[C@H](O)[C@@H](C(=O)O)C[C@H]1N=C(N)N [Peramivir]
Papp A-B (Calu-3 cell model): BLQ | Papp B-A (Calu-3 cell model): BLQ | concentration of peramivir in uptake experiment (below the detection limit) [1]: < 2 nM | OCT1 substrate status (human OCT1; HEK293-OCT1): does not act as a substrate | transporter-mediated uptake ratio (UR) (human OCT1; HEK293-OCT1, 50 μM): < 1 | inhibition ratio (IR) (human OCT1; HEK293-OCT1, 50 μM, inhibitor verapamil (200 μM)): exceeding 98.51% | Papp A-B (human MDR1 (P-gp); [3]): BLQ | Papp B-A (human MDR1 (P-gp); [3]): 0.23 ± 0.03 ×10−6 cm/s | P-gp transporter substrate status (human MDR1 (P-gp); Papp(B→A) LLC-PK1-MDR1 vs LLC-PK1-MOCK): not a substrate of the P-gp transporter | AUC(0–t) ([2]; i.t. 0.3 mg/kg): 405.17 ± 56.59 ng·h/mL | AUC(0–t)/D ([2]; i.t. 0.3 mg/kg): 1350.57 ± 188.64 kg·ng·h/mL/mg | AUC(0–∞) ([2]; i.t. 0.3 mg/kg): 407.71 ± 56.59 ng·h/mL | Cmax or C0 ([2]; i.t. 0.3 mg/kg): 204.67 ± 80.82 ng/mL | Cmax/D ([2]; i.t. 0.3 mg/kg): 682.22 ± 269.38 kg·ng/mL/mg | MRT(0–t) ([2]; i.t. 0.3 mg/kg): 1.62 ± 0.31 h | MRT(0–∞) ([2]; i.t. 0.3 mg/kg): 1.67 ± 0.33 h | T1/2 ([2]; i.t. 0.3 mg/kg): 1.07 ± 0.22 h | Tmax ([2]; i.t. 0.3 mg/kg): 0.37 ± 0.38 h | AUC(0–t) ([2]; i.t. 1 mg/kg): 1279.25 ± 93.59 ng·h/mL | AUC(0–t)/D ([2]; i.t. 1 mg/kg): 1279.25 ± 93.59 kg·ng·h/mL/mg | AUC(0–∞) ([2]; i.t. 1 mg/kg): 1291.03 ± 92.89 ng·h/mL | Cmax or C0 ([2]; i.t. 1 mg/kg): 544.17 ± 215.23 ng/mL | Cmax/D ([2]; i.t. 1 mg/kg): 544.17 ± 215.23 kg·ng/mL/mg | MRT(0–t) ([2]; i.t. 1 mg/kg): 2.08 ± 0.69 h | MRT(0–∞) ([2]; i.t. 1 mg/kg): 2.32 ± 1.07 h | T1/2 ([2]; i.t. 1 mg/kg): 4.10 ± 1.69 h | Tmax ([2]; i.t. 1 mg/kg): 0.67 ± 0.40 h | AUC(0–t) ([2]; i.t. 3 mg/kg): 4364.35 ± 583.02 ng·h/mL | AUC(0–t)/D ([2]; i.t. 3 mg/kg): 1454.78 ± 194.34 kg·ng·h/mL/mg | AUC(0–∞) ([2]; i.t. 3 mg/kg): 4673.22 ± 567.78 ng·h/mL | Cmax or C0 ([2]; i.t. 3 mg/kg): 2303.33 ± 1523.96 ng/mL | Cmax/D ([2]; i.t. 3 mg/kg): 767.78 ± 507.99 kg·ng/mL/mg | MRT(0–t) ([2]; i.t. 3 mg/kg): 3.15 ± 0.66 h | MRT(0–∞) ([2]; i.t. 3 mg/kg): 8.26 ± 4.04 h | T1/2 ([2]; i.t. 3 mg/kg): 27.20 ± 9.67 h | Tmax ([2]; i.t. 3 mg/kg): 0.29 ± 0.36 h | AUC(0–t) ([2]; i.t. 6 mg/kg): 8479.33 ± 883.87 ng·h/mL | AUC(0–t)/D ([2]; i.t. 6 mg/kg): 1413.22 ± 147.31 kg·ng·h/mL/mg | AUC(0–∞) ([2]; i.t. 6 mg/kg): 8852.22 ± 897.97 ng·h/mL | Cmax or C0 ([2]; i.t. 6 mg/kg): 3866.00 ± 2454.21 ng/mL | Cmax/D ([2]; i.t. 6 mg/kg): 644.33 ± 409.04 kg·ng/mL/mg | MRT(0–t) ([2]; i.t. 6 mg/kg): 3.41 ± 1.08 h | MRT(0–∞) ([2]; i.t. 6 mg/kg): 5.70 ± 1.84 h | T1/2 ([2]; i.t. 6 mg/kg): 17.73 ± 2.85 h | Tmax ([2]; i.t. 6 mg/kg): 0.29 ± 0.39 h | AUC(0–t) ([2]; i.v. 3 mg/kg): 3765.02 ± 247.43 ng·h/mL | AUC(0–t)/D ([2]; i.v. 3 mg/kg): 1255.00 ± 82.48 kg·ng·h/mL/mg | AUC(0–∞) ([2]; i.v. 3 mg/kg): 3773.97 ± 245.49 ng·h/mL | Cl ([2]; i.v. 3 mg/kg): 13.296 ± 0.8863 mL/min/kg | Cmax or C0 ([2]; i.v. 3 mg/kg): 12,705.55 ± 1264.79 ng/mL | MRT(0–t) ([2]; i.v. 3 mg/kg): 0.59 ± 0.06 h | MRT(0–∞) ([2]; i.v. 3 mg/kg): 0.62 ± 0.06 h | T1/2 ([2]; i.v. 3 mg/kg): 2.11 ± 1.25 h | Vss ([2]; i.v. 3 mg/kg): 0.49811 ± 0.0581 L/kg | Vz ([2]; i.v. 3 mg/kg): 2.46265 ± 1.56916 L/kg | AUC(0–t) ([2]; i.v. 6 mg/kg): 6048.04 ± 635.88 ng·h/mL | AUC(0–t)/D ([2]; i.v. 6 mg/kg): 1008.01 ± 105.98 kg·ng·h/mL/mg | AUC(0–∞) ([2]; i.v. 6 mg/kg): 6060.92 ± 637.85 ng·h/mL | Cl ([2]; i.v. 6 mg/kg): 16.654 ± 1.7818 mL/min/kg | Cmax or C0 ([2]; i.v. 6 mg/kg): 22,731.79 ± 5543.47 ng/mL | MRT(0–t) ([2]; i.v. 6 mg/kg): 0.47 ± 0.06 h | MRT(0–∞) ([2]; i.v. 6 mg/kg): 0.51 ± 0.07 h | T1/2 ([2]; i.v. 6 mg/kg): 3.07 ± 0.61 h | Vss ([2]; i.v. 6 mg/kg): 0.47267 ± 0.06358 L/kg | Vz ([2]; i.v. 6 mg/kg): 4.43299 ± 1.0131 L/kg | increase of mean residence time (MRT), inhaled vs intravenous ([2]; rat, equivalent doses): nearly tenfold | time of peak plasma concentration ([2]; rat, following inhalation): approximately 30 min | bioavailability ([2]; rat, inhalation vs intravenous): exceeding 100% | dose linearity of AUC and Cmax ([2]; rat, intratracheal, dose range 0.3 mg/kg to 6 mg/kg): linear pharmacokinetics
